Measured values taken from patent US11667651B2, “Aminopyridine derivatives as phosphatidylinositol phosphate kinase inhibitors” (HiberCell, Inc., priority 2017, dated 2023).

Experiments:
Assay type in all cases: biochemical
PIP4K2A [1] = target: T1, PIP4K2A (Homo sapiens, UniProt P48426); assay: ADP-glo kinase assay PIP4K 2A (Table 3); parameters: made in house; host or cells: E. coli; conditions: compounds listed under IC50 bins
T1 sequence (P48426 1-406): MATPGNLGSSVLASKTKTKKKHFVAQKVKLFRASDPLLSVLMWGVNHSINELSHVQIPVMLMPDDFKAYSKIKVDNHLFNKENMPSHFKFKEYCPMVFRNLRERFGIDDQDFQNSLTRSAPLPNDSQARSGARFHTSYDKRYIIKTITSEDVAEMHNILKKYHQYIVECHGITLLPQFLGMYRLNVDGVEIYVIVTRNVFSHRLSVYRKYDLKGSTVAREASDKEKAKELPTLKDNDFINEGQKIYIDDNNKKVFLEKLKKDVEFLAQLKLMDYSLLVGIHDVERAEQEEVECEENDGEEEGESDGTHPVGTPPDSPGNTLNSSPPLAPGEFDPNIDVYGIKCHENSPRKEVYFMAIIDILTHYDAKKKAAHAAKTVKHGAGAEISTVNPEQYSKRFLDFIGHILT
Summary of the method: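 Full-length PIP4K2A (4 nM in the mix) with 100 μM PI(5)P diC8 pre-incubated 15 min with compound in MOPS pH 7.2, 25 mM MgCl2; ATP added (60 μM solution), 1 h at RT. ADP formed read by ADP-Glo luminescence; 10-point curves versus DMSO controls fitted to IC50.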

PIP4K2B = target: T2, PIP4K2B (Homo sapiens, UniProt P78356); assay: Trans-FI P kinase assay PIP4K2B (Table 4); conditions: compounds listed under IC50 bins; read-out: Trans-FI P kinase assays: PIP4K2B IC50
T2 construct: made in house; host or cells: E. coli
T2 sequence (P78356 1-416): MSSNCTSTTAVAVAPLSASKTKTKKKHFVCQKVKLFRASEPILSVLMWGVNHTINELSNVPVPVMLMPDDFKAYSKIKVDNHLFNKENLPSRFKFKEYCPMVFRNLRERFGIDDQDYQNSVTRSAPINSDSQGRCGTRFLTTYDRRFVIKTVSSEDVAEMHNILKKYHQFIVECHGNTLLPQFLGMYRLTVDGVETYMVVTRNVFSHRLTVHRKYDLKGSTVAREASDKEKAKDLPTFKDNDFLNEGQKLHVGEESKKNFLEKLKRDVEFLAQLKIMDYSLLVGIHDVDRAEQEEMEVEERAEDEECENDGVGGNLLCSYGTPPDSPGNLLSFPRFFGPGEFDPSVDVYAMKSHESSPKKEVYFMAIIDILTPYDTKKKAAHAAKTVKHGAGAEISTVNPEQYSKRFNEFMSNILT
Summary of the method: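 Transcreener FI detection (Ex 584/Em 623) of GDP, converted via calibration curve, gives IC50 from residual activity versus log concentration (highest 4.8 μM). Reaction: 80 μM PI5P plus DOPE carrier, 100 μM GTP, 5 nM GST-tagged enzyme, pH 7.3 HEPES with MgCl2 and 5% DMSO, 2 h after 1 h enzyme-compound preincubation at 27° C.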

PIP4K2A [2] = target: T1, PIP4K2A; assay: Kinase Assay PIP4K2 A (Table 2); parameters: 4 nM PIP4K2A (full length protein, SignalChem); purchased SignalChem; conditions: compounds listed under IC50 bins
Summary of the method: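 Full-length PIP4K2A (4 nM in the added mix, with 100 μM PI(5)P diC8) pre-incubated 15 min at RT with compounds (10-point, 3-fold series) in 20 mM MOPS pH 7.2, 25 mM MgCl2, 0.005% Tween 20. ATP added from a 60 μM solution, 1 h at RT; ADP-Glo luminescence, IC50 fitted from % inhibition versus DMSO.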

Row | IC50 (PIP4K2A [1]) [µM] | IC50 (PIP4K2B) [µM] | IC50 (PIP4K2A [2]) [µM] | SMILES
1 | 0.01 to 0.1 | 0.01 to 0.1 | 0.001 to 0.01 | CN(C)C/C=C/C(=O)Nc1cccc(C(=O)Nc2cncc(Nc3ccc(-c4ccc(C(=O)N(C)C)cc4)cn3)c2)c1 [Example 100, (E)-4-(6-((5-(3-(4-(dimethylamino)but-2-enamido)benzamido)pyridin-3-yl)amino)pyridin-3-yl)-N,N-dimethylbenzamide]
2 | 0.1 to 1 | 0.01 to 0.1 | 0.01 to 0.1 | CN(C)C(=O)c1ccc(-c2ccc(Nc3cncc(NC(=O)CCc4cccc(NC(=O)OC(C)(C)C)c4)c3)nc2)cc1 [Example 101, tert-butyl (3-(3-((5-((5-(4-(dimethylcarbamoyl)phenyl)pyridin-2-yl)amino)pyridin-3-yl)amino)-3-oxopropyl)phenyl)carbamate]
3 | 0.01 to 0.1 | 0.01 to 0.1 | 0.001 to 0.01 | CN(C)C(=O)c1ccc(-c2ccc(Nc3cncc(NC(=O)CCc4cccc(N)c4)c3)nc2)cc1 [Example 102, 4-(6-((5-(3-(3-aminophenyl)propanamido)pyridin-3-yl)amino)pyridin-3-yl)-N,N-dimethylbenzamide]
4 | 0.01 to 0.1 | 0.01 to 0.1 | 0.001 to 0.01 | CN(C)C/C=C/C(=O)Nc1cccc(CCC(=O)Nc2cncc(Nc3ccc(-c4ccc(C(=O)N(C)C)cc4)cn3)c2)c1 [Example 103, (E)-4-(6-((5-(3-(3-(4-(dimethylamino)but-2-enamido)phenyl)propanamido)pyridin-3-yl)amino)pyridin-3-yl)-N,N-dimethylbenzamide]
5 | > 1 | > 1 | 0.1 to 1 | CN(C)C(=O)c1ccc(-c2ccc(Nc3ccc(CNC(=O)c4cccc(NC(=O)OC(C)(C)C)c4)nc3)nc2)cc1 [Example 104, tert-butyl (3-(((5-((5-(4-(dimethylcarbamoyl)phenyl)pyridin-2-yl)amino)pyridin-2-yl)methyl)carbamoyl)phenyl)carbamate]
6 | 0.1 to 1 | 0.01 to 0.1 | 0.1 to 1 | CN(C)C/C=C/C(=O)Nc1cccc(C(=O)NCc2ccc(Nc3ccc(-c4ccc(C(=O)N(C)C)cc4)cn3)cn2)c1 [Example 106, (E)-4-(6-((6-((3-(4-(dimethylamino)but-2-enamido)benzamido)methyl)pyridin-3-yl)amino)pyridin-3-yl)-N,N-dimethylbenzamide]
7 | 0.1 to 1 | 0.01 to 0.1 | 0.1 to 1 | CN(C)C(=O)c1ccc(-c2ccc(Nc3cncc(NC(=O)CCc4cccc(NC(=O)CN)c4)c3)nc2)cc1 [Example 107, 4-(6-((5-(3-(3-(2-aminoacetamido)phenyl)propanamido)pyridin-3-yl)amino)pyridin-3-yl)-N,N-dimethylbenzamide]
8 | 0.1 to 1 | > 1 | 0.1 to 1 | CN(C)C/C=C/C(=O)NCC(=O)Nc1cccc(CCC(=O)Nc2cncc(Nc3ccc(-c4ccc(C(=O)N(C)C)cc4)cn3)c2)c1 [Example 108, (E)-4-(6-((5-(3-(3-(2-(4-(dimethylamino)but-2-enamido)acetamido)phenyl)propanamido)pyridin-3-yl)amino)pyridin-3-yl)-N,N-dimethylbenzamide]
9 | 0.001 to 0.01 | 0.01 to 0.1 | 0.001 to 0.01 | CN(C)C(=O)c1ccc(-c2ccc(Nc3cncc(NC(=O)CCc4cccc(NC(=O)C5CCNCC5)c4)c3)nc2)cc1 [Example 109, N-(3-(3-((5-((5-(4-(dimethylcarbamoyl)phenyl)pyridin-2-yl)amino)pyridin-3-yl)amino)-3-oxopropyl)phenyl)piperidine-4-carboxamide]
10 | 0.1 to 1 | > 1 | 0.1 to 1 | CN(C)C/C=C/C(=O)N1CCC(C(=O)Nc2cccc(CCC(=O)Nc3cncc(Nc4ccc(-c5ccc(C(=O)N(C)C)cc5)cn4)c3)c2)CC1 [Example 110, (E)-1-(4-(dimethylamino)but-2-enoyl)-N-(3-(3-((5-((5-(4-(dimethylcarbamoyl)phenyl)pyridin-2-yl)amino)pyridin-3-yl)amino)-3-oxopropyl)phenyl)piperidine-4-carboxamide]
